Results published in ChEMBL document CHEMBL1152969, “Verbesinosides A-F, 15,27-cyclooleanane saponins from the American native plant Verbesina virginica” (J Nat Prod, 2009).
Calls of active or inactive are those of the source.

How the values were obtained:
Type in all cases: functional, organism-based
Cryptococcus neoformans = assay: Antimicrobial activity against Cryptococcus neoformans at 20 ug/mL
Candida albicans = assay: Antimicrobial activity against Candida albicans at 20 ug/mL
Aspergillus fumigatus = assay: Antimicrobial activity against Aspergillus fumigatus at 20 ug/mL
Staphylococcus aureus [1] = assay: Antimicrobial activity against Staphylococcus aureus at 20 ug/mL
[2] = system: Mycobacterium intracellulare; assay: Antimicrobial activity against Mycobacterium intracellular at 20 ug/mL
Pseudomonas aeruginosa = assay: Antimicrobial activity against Pseudomonas aeruginosa at 20 ug/mL
Staphylococcus aureus [3] = assay: Antimicrobial activity against methicillin-resistant Staphylococcus aureus at 20 ug/mL

Measured: Activity

COc1cc(C(=O)O[C@H]2C[C@]3(C(=O)O)C[C@@H]4C[C@]45C(=CCC4[C@@]6(C)CC[C@H](O[C@@H]7O[C@H](CO)[C@@H](O)[C@H](O)[C@H]7O[C@@H]7OC[C@@H](O[C@@H]8OC[C@@H](O)[C@H](O)[C@H]8O)[C@H](O)[C@H]7O)C(C)(C)[C@@H]6CC[C@]45C)[C@@H]3CC2(C)C)cc(OC)c1OC (some centres not stated)
inactive: all assays above
